Data taken from patent US11730720B2, “ALK5 inhibitors” (THERAVANCE BIOPHARMA R&D IP, LLC, priority 2018, dated 2023).

How the values were obtained:
[1] = biological target: T1, recombinant human ALK5 (TGF-βR1) protein (Homo sapiens, UniProt P36897); assay: Biochemical ALK5 (TGF-βR1) assay to measure pKi (LANCE Ultra ULight kinase assay); conditions: apparent pKi, converted from pIC50 using the Cheng-Prusoff equation
T1 construct: purchased Life Technologies PR9075A
T1 sequence (P36897 34-503): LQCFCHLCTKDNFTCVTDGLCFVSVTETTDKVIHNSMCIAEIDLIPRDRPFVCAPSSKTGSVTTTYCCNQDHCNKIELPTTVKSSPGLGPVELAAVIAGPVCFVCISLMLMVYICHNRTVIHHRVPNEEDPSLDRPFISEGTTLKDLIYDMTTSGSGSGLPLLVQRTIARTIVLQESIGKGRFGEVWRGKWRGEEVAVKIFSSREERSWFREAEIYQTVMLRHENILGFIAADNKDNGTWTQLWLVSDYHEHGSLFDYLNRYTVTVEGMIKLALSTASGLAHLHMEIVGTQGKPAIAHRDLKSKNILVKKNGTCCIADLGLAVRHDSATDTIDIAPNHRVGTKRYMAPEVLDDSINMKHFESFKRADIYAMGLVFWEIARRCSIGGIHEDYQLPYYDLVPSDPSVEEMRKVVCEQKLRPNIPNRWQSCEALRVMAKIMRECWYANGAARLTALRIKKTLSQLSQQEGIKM
How it was run: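 TR-FRET kinase format: compound dose range 10 μM–25 pM equilibrated 60 min with human ALK5 and ULight-labelled topoisomerase 2α peptide in HEPES/MgCl2 buffer pH 7.5 with DTT. Reaction started with ATP (125 μM stock, 5× final), 60 min at 37° C, stopped with EDTA/Eu-anti-phospho antibody; pKi derived from pIC50 via Cheng-Prusoff.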

[2] = tested on: TGF-β-stimulated SMAD3 phosphorylation in BEAS-2B cells; assay: Cellular ALK5 potency assay, inhibition of TGF-β stimulated pSMAD3 formation in BEAS-2B cells; type: cell-based; conditions: Homo sapiens, inhibition of TGF-β (10 ng/mL) stimulated pSMAD3 formation, 1 hour compound incubation, read-out: BEAS2B pIC50 (converted)
How it was run: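 Phospho-SMAD3 was quantified by AlphaLISA in lysates of human lung epithelial BEAS-2B cells. Compound was added 1 h (37 °C, HEPES/BSA-supplemented HBSS) before a 30 min challenge with 10 ng/mL TGF-β. Values are pIC50 relative to stimulated cells without compound.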

Compound	Ki [1] [nM]	IC50 [2] [nM]
CNCCn1cc(-c2cnc3ccc(-c4nc[nH]c4-c4cc(Cl)c(F)cc4F)cc3c2)cn1 [Compound 22-2, 2-(4-(6-(5-(5-chloro-2,4-difluorophenyl)-1H-imidazol-4-yl)quinolin-3-yl)-1H-pyrazol-1-yl)-N-methylethan-1-amine]	0.0398 to 0.316	25.1 to 158
CCN1CCC(N(C)c2cnc3ccc(-c4c[nH]nc4-c4cc(Cl)c(F)cc4F)nc3c2)CC1 [Compound 6-15, 6-[3-(5-chloro-2,4-difluoro-phenyl)-1H-pyrazol-4-yl]-N-(1-ethyl-4-piperidyl)-N-methyl-1,5-naphthyridin-3-amine]	0.398 to 3.16	25.1 to 158
NCCn1cc(-c2cnc3ccc(-c4nc[nH]c4-c4cc(Cl)c(F)cc4F)cc3c2)cn1 [Compound 22-3, 2-[4-[6-[5-(5-chloro-2,4-difluoro-phenyl)-1H-imidazol-4-yl]-3-quinolyl]pyrazol-1-yl]ethanamine]	0.0398 to 0.316	25.1 to 158
COC(=O)N1CCc2nnc(-c3cnc4ccc(-c5c[nH]nc5-c5cc(Cl)ccc5F)nc4c3)cc2C1 [Compound 1-126, methyl 3-[6-[3-(5-chloro-2-fluoro-phenyl)-1H-pyrazol-4-yl]-1,5-naphthyridin-3-yl]-7,8-dihydro-5H-pyrido[4,3-c]pyridazine-6-carboxylate]	0.0398 to 0.316	25.1 to 158
CNCCn1cc(-c2cnc3ccc(-c4nc[nH]c4-c4cccc(Cl)c4)cc3c2)cn1 [Compound 24-1, 2-(4-(6-(5-(3-chlorophenyl)-1H-imidazol-4-yl)quinolin-3-yl)-1H-pyrazol-1-yl)-N-methylethan-1-amine]	≤ 0.0316	≤ 20
Fc1cc(F)c(-c2n[nH]cc2-c2ccc3ncc(NC[C@H]4CCCCN4)cc3n2)cc1Cl [Compound 6-11, 6-[3-(5-chloro-2,4-difluoro-phenyl)-1H-pyrazol-4-yl]-N-[[(2R)-2-piperidyl]methyl]-1,5-naphthyridin-3-amine]	0.398 to 3.16	25.1 to 158
Fc1ccc(Cl)cc1-c1[nH]cnc1-c1ccc2ncc(-c3cnc4n3CCN4)cc2c1 [Compound 17-9, 6-(5-(5-chloro-2-fluorophenyl)-1H-imidazol-4-yl)-3-(2,3-dihydro-1H-imidazo[1,2-a]imidazol-5-yl)quinoline]	0.0398 to 0.316	25.1 to 158
Fc1ccccc1-c1[nH]nnc1-c1ccc2ncc(-c3c[nH]nc3C(F)(F)F)cc2n1 [Compound 12-2, 2-[5-(2-fluorophenyl)-1H-triazol-4-yl]-7-[3-(trifluoromethyl)-1H-pyrazol-4-yl]-1,5-naphthyridine]	3.98 to 31.6	25.1 to 158
N[C@@H]1CCCC[C@H]1n1cc(-c2cnc3ccc(-c4nc[nH]c4-c4cc(Cl)c(F)cc4F)cc3c2)cn1 [Compound 7-7, (1R,2R)-2-[4-[6-[5-(5-chloro-2,4-difluoro-phenyl)-1H-imidazol-4-yl]-3-quinolyl]pyrazol-1-yl]cyclohexanamine]	0.0398 to 0.316	25.1 to 158
Fc1ccc(Cl)cc1-c1n[nH]cc1-c1ccc2ncc(-c3nc4n(n3)CCNC4)cc2n1 [Compound 1-100, 2-(3-(5-chloro-2-fluorophenyl)-1H-pyrazol-4-yl)-7-(5,6,7,8-tetrahydro-[1,2,4]triazolo[1,5-a]pyrazin-2-yl)-1,5-naphthyridine]	0.0398 to 0.316	25.1 to 158
COC(=O)CC1CN(CCNc2cnc3ccc(-c4nc[nH]c4-c4cc(Cl)ccc4F)nc3c2)CCN1 (stereo not shown) [Compound 2-36, methyl 2-[4-[2-[[6-[5-(5-chloro-2-fluoro-phenyl)-1H-imidazol-4-yl]-1,5-naphthyridin-3-yl]amino]ethyl]piperazin-2-yl]acetate]	0.0398 to 0.316	25.1 to 158
COC(=O)c1coc(-c2cnc3ccc(-c4c[nH]nc4-c4cc(Cl)ccc4F)nc3c2)n1 [Compound 1-104, methyl 2-[6-[3-(5-chloro-2-fluoro-phenyl)-1H-pyrazol-4-yl]-1,5-naphthyridin-3-yl]oxazole-4-carboxylate]	0.398 to 3.16	25.1 to 158

Second part, led by results:

Ki [1] [nM]	Compound	IC50 [2] [nM]
0.0398 to 0.316	Fc1ccc(Cl)cc1-c1nc2ccccn2c1-c1ccc2ncc(N3CCNCC3)cc2n1 [Compound 3-2, 2-(2-(5-chloro-2-fluorophenyl)imidazo[1,2-a]pyridin-3-yl)-7-(piperazin-1-yl)-1,5-naphthyridine]	200 to 1260
0.398 to 3.16	O=C(O)CC1CN(c2cnc3ccc(-c4nc[nH]c4-c4cccc(Cl)c4)nc3c2)CCN1 (stereo not shown) [Compound 29-4, 2-(4-(6-(5-(3-chlorophenyl)-1H-imidazol-4-yl)-1,5-naphthyridin-3-yl)piperazin-2-yl)acetic acid]	1580 to 10000
0.398 to 3.16	COCc1cccc(-c2n[nH]cc2-c2ccc3ncc(-c4cn[nH]c4)cc3n2)c1 [Compound 14-9, 2-[3-[3-(methoxymethyl)phenyl]-1H-pyrazol-4-yl]-7-(1H-pyrazol-4-yl)-1,5-naphthyridine]	≤ 20
≤ 0.0316	CN(C)CCN1CCN(c2cnc3ccc(-c4c[nH]nc4-c4cc(Cl)ccc4F)nc3c2)CC1 [Compound 1-71, 2-[4-[6-[3-(5-chloro-2-fluoro-phenyl)-1H-pyrazol-4-yl]-1,5-naphthyridin-3-yl]piperazin-1-yl]-N,N-dimethyl-ethanamine]	≤ 20
0.398 to 3.16	CN1CCN(C2CCN(c3cnc4ccc(-c5c[nH]nc5-c5cc(Cl)ccc5F)cc4c3)CC2)CC1 [Compound 16-4, 6-[3-(5-chloro-2-fluoro-phenyl)-1H-pyrazol-4-yl]-3-[4-(4-methylpiperazin-1-yl)-1-piperidyl]quinoline]	25.1 to 158
0.398 to 3.16	O=C(O)[C@H]1CN(c2cnc3ccc(-c4c[nH]nc4-c4cc(Cl)c(F)cc4F)nc3c2)CCN1 [Compound 6-68, (2R)-4-[6-[3-(5-chloro-2,4-difluoro-phenyl)-1H-pyrazol-4-yl]-1,5-naphthyridin-3-yl]piperazine-2-carboxylic acid]	200 to 1260
3.98 to 31.6	Fc1ccc(Cl)cc1-c1n[nH]cc1-c1ccc2ncc(C3CCNC3)cc2n1 (stereo not shown) [Compound 1-99, 2-[3-(5-chloro-2-fluoro-phenyl)-1H-pyrazol-4-yl]-7-pyrrolidin-3-yl-1,5-naphthyridine]	200 to 1260
0.0398 to 0.316	NC1CN(c2cnc3ccc(-c4c[nH]nc4-c4cc(Cl)c(F)cc4F)nc3c2)C1 [Compound 6-30, 1-[6-[3-(5-chloro-2,4-difluoro-phenyl)-1H-pyrazol-4-yl]-1,5-naphthyridin-3-yl]azetidin-3-amine]	25.1 to 158
3.98 to 31.6	COCc1cccc(-c2n[nH]cc2-c2ccc3ncc(N4CCC(N5CCCC5)CC4)cc3n2)c1 [Compound 14-3, 2-[3-[3-(methoxymethyl)phenyl]-1H-pyrazol-4-yl]-7-(4-pyrrolidin-1-yl-1-piperidyl)-1,5-naphthyridine]	25.1 to 158
≤ 0.0316	CNC1CCN(c2cnc3ccc(-c4c[nH]nc4-c4cc(Cl)c(F)cc4F)nc3c2)C1 (stereo not shown) [Compound 6-35, 1-[6-[3-(5-chloro-2,4-difluoro-phenyl)-1H-pyrazol-4-yl]-1,5-naphthyridin-3-yl]-N-methyl-pyrrolidin-3-amine]	≤ 20
0.0398 to 0.316	COCc1cccc(-c2n[nH]cc2-c2ccc3ncc(-c4cnn([C@H]5CCCC[C@H]5N)c4)cc3n2)c1 [Compound 14-18, (1R,2S)-2-[4-[6-[3-[3-(methoxymethyl)phenyl]-1H-pyrazol-4-yl]-1,5-naphthyridin-3-yl]pyrazol-1-yl]cyclohexanamine]	25.1 to 158
